Reference: US20170273916A1, “METHODS FOR TREATING AND PREVENTING NEURODEGENERATIVE DISEASES” (priority 2016, published 2017)
Converted amounts (≈) assume the structure as drawn. “Also recorded” adds a separate entry of the source.

Tests used:
[1] = tested on: Aβ-induced PC12 cell model; assay: Prophylactic effect on Aβ-induced PC12 AD cell model (sample pretreatment, then aggregated Aβ; CCK-8 cell viability); assay type: cell-based, rat; conditions: sample 24 h, then aggregated Aβ 24 h; for prophylactic effect on AD cell model (preventing Aβ-induced neuronal damage, cell viability): FIGS. 3A-3E, concentration not given
Method: (§1) β-Amyloid 1-40 (Aβ) was dissolved in 0.1% (v/v) trifluoroacetic acid (TFA) in water at 10 mg/ml and stored at −20° C. as a stock solution. Af3 was diluted to 0.5 mg/ml with phosphate-buffered saline solution (PBS, without Ca2+) and aggregate at 25° C. for 48 hr before use. To investigate the therapeutic effect of extracts (ANCA, ANCA-D) and compounds (Antrocamol LT1, LT2, LT3) on Alzheimer disease (AD) cell model in vitro, cultures were pretreated with Aβ for 24 h and then exposed to freshly prepared extracts (ANCA, ANCA-D) and compounds (Antrocamol LT1, LT2, LT3) for 24 hr before cell viability measurements. In contrast, to investigate the prophylactic effect of extracts (ANCA, ANCA-D) and compounds (Antrocamol LT1, LT2, LT3) on AD cell model, cultures were pretreated with extracts (ANCA, ANCA-D) and compounds (Antrocamol LT1, LT2, LT3) for 24 h and then exposure to aggregated Aβ for 24 h before cell viability measurements. The cell viability was estimated by below formulation:
(§2) Cell viability (%)=(Sample-Blank)/(Control-Blank)×100%

[2] = tested on: Aβ-induced PC12 cell model; assay: Therapeutic effect on Aβ-induced PC12 AD cell model (Aβ pretreatment, then sample; CCK-8 cell viability); assay type: cell-based, rat; conditions: Aβ 24 h, then sample 24 hr; for therapeutic effect on AD cell model (inhibition of Aβ-induced damage, cell viability): FIGS. 2A-2E, concentration not given
Method: as §1, §2

NGF-induced PC12 cells = assay: Viability of NGF-induced PC12 cells treated with extracts and compounds (CCK-8 assay); assay type: cell-based; conditions: Rattus norvegicus, PC-12, 24 hr incubation, CCK-8, FIGS. 1A-1E, read-out: IC50 (cell viability)
Method: PC12 cells were cultured in RPMI 1640 medium (5% fetal bovine serum, 10% heat-inactivated horse serum, 2 mM glutamine, 50 U/mL penicillin, […] streptomycin), at 37° C., 5% CO2, subculture twice a week.
PC12 cells need to be cultured in medium containing Nerve growth factor (NGF) 2.5S, (100 ng/mL) in advance for NGF-induced neuronal differentiation.
Cell Counting Kit-8(CCK-8) allows sensitive colorimetric assays for the determination of cell viability in cell proliferation and cytotoxicity assays. Dojindo's highly water-soluble tetrazolium salt, WST-8, is reduced by dehydrogenase activities in cells to give a yellow-color formazan dye, which is soluble in the tissue culture media. The amount of the formazan dye, generated by the activities of dehydrogenases in cells, is directly proportional to the number of living cells. The detection sensitivity of CCK-8 is higher than the other tetrazolium salts such as MTT, XTT, MTS or WST-1.
To optimize the exemplary extracts (ANCA, ANCA-D) and compounds (Antrocamol LT1, LT2, LT3) concentration for NGF-induced PC12 neural model, titration experiments were performed to determine the IC50 values of extracts and compounds. 5 x 10^4 NGF-induced PC12 cells were cultured in 96-well dish for 24 hr. Then the cells were cultured in medium with 1% fetal bovine serum, 2% heat-inactivated horse serum, 2 mM glutamine, 50 U/mL penicillin, […] streptomycin RPMI 1640 medium, then various concentrations of extracts [ANCA, ANCA-D (0.064, 0.32, 1.6, 8, 40, 200 μg/mL)] and compounds [Antrocamol LT1, LT2, LT3 (0.032, 0.16, 0.8, 4, 20, 100 μg/mL) were added individually and incubated for 24 hr. After treatment, the CCK-8 solution was added to each well of plates and incubates the plates for 4 hr in the incubator. The concentration of the formazan product was determined spectrophotometrically at an absorbance wavelength 450 nm and cell viability was expressed as a percentage of the corresponding control.

| Structure (SMILES) | prophylactic effect on AD cell model (preventing Aβ-induced neuronal damage, cell viability) [1] | inhibitory effect on Aβ-induced damage (therapeutic) ([2]; 25 μg/mL) | inhibitory effect on Aβ-induced damage (therapeutic) ([2]; 50 μg/mL) | inhibitory effect on Aβ-induced damage (therapeutic) ([2]; 100 μg/mL) | therapeutic effect on AD cell model (inhibition of Aβ-induced damage, cell viability) [2] | IC50 (NGF-induced PC12 cells) | prophylactic effect compared with extracts ([1]; 100 μg/mL, 50 μg/mL, 25 μg/mL) |
| --- | --- | --- | --- | --- | --- | --- | --- |
| COC1=C(OC)[C@H](O)[C@H](C/C=C(\C)CC/C=C(\C)C/C=C/C(C)(C)O)[C@@H](C)C1=O [LT3, (4R,5R,6R)-4-hydroxy-5-[(2E,6E,9E)-11-hydroxy-3,7,11-trimethyldodeca-2,6,9-trienyl]-2,3-dimethoxy-6-methylcyclohex-2-enone] | significant impact in preventing; also recorded: weak preventing effect | weak | significant inhibitory effect | significant inhibitory effect | significantly inhibited Aβ-induced damage and improved the cell viability | 106 µg/mL (≈ 259 µM) |  |
| COC1=C(OC)[C@H](O)[C@H](C/C=C(\C)CC/C=C(\C)CC(O)C=C(C)C)[C@@H](C)C1=O (stereo partly shown) [LT1, 4-hydroxy-5-[9-hydroxy-3,7,11-trimethyldodeca-2,6,10-trienyl]-2,3-dimethoxy-6-methyl-cyclohex-2-enone] | significant impact in preventing | weak | significant inhibitory effect | significant inhibitory effect | significantly inhibited Aβ-induced damage and improved the cell viability | 178 µg/mL (≈ 439 µM) | better prophylactic effect than extracts |
| COC1=C(OC)[C@H](OC(C)=O)[C@H](C/C=C(\C)CC/C=C(\C)CC(O)C=C(C)C)[C@@H](C)C1=O (stereo partly shown) [LT2, 4-acetoxy-5-[9-hydroxy-3,7,11-trimethyldodeca-2,6,10-trienyl]-2,3-dimethoxy-6-methyl-cyclohex-2-enone] | significant impact in preventing; also recorded: weak preventing effect | weak | significant inhibitory effect | significant inhibitory effect | significantly inhibited Aβ-induced damage and improved the cell viability | 168 µg/mL (≈ 376 µM) |  |
